Measured values: paper PMC6116703, “Ethenesulfonyl fluoride derivatives as telomerase inhibitors: structure-based design, SAR, and anticancer evaluation in vitro” (Journal of Enzyme Inhibition and Medicinal Chemistry, 2018)
Like-named read-outs stand apart in the source and are kept apart here.

Tests used:
[1] = tested on: human gastric cancer cells SGC-7901; assay: Cell proliferation (MTT) assay, SGC-7901; format: cell-based; details: read-out: IC50 SGC-7901
Procedure: (§1) The antiproliferative activities evaluation was conducted by using a modified procedure as described in the literature. Briefly, target tumour cells were grown to log phase in RPMI 1640 medium supplemented with 10% fetal bovine serum. After diluting to 3 × 10^4 cells mL^−1 with the complete medium, 100 µL of the obtained cell suspension was added to each well of 96-well culture plates. The subsequent incubation was performed at 37 °C, 5% CO2 atmosphere for 24 h before subjecting to antiproliferation assessment. The tested samples at pre-set concentrations were added to six wells with Doxorubicin (AMD) co-assayed as a positive reference. After 48 h of exposure period, 25 µL of PBS containing 2.5 mg·mL^−1 of MTT was added to each well. After 4 h, the medium was replaced by 150 µL DMSO to dissolve the purple formazan crystals produced. The absorbance at 570 nm of each well was measured using an ELISA plate reader. The data represented the mean of three experiments in triplicate and were expressed as means ± SD using Student’s test.

[2] = tested on: human breast cancer cell MDA-MB-231; assay: Cell proliferation (MTT) assay, MDA-MB-231; format: cell-based
Procedure: as §1

human melanoma cell A375 = assay: Cell proliferation (MTT) assay, A375; format: cell-based
Procedure: as §1

telomerase = molecular target: T1, telomerase (Homo sapiens, UniProt O14746); assay: Telomerase activity TRAP-PCR-ELISA assay (A375 cell extract); format: biochemical; details: TRAP-PCR-ELISA, A375 cells, 24 h treatment
T1 construct: endogenous in cells; host or cells: A375 human melanoma cells
Procedure: Thirty-six compounds were tested in a search for inhibitors of telomerase activity using the TRAP-PCR-ELISA assay. In detail, the A375 cells were firstly maintained in RPMI 1640 buffer (Hyclone, Miami, FL), supplemented with 10% fetal bovineserum (GIBCO, New York, NY), streptomycin (0.1 mg/mL) and penicillin (100 IU/mL) at 37 °C in a humidified atmosphere containing 5% CO2. After trypsinisation, 5 × 10^4 cultured cells in logarithmic growth were seeded into T25 flasks (Corning, New York, NY) and cultured to allow to adherence. […] After 24 h treatment, the cells were harvested by cell scraper orderly followed by washing once with PBS. The cells were lysed in 150 µL RIPA cell lysis buffer (Santa Cruz, Santa Cruz, CA), and incubated on ice for 30 min. The cellular supernatants were obtained via centrifugation at 12,000g for 20 min at 4 °C and stored at –80 °C. The TRAP-PCR-ELISA assay was performed using a telomerase detection kit (Roche, Basel, Switzerland) according to the manufacturer’s protocol. In brief, 2 µL of cell extracts were mixed with 48 µL TRAP reaction mixtures. TRAP primers and Taq polymerase are incubated at 25 °C for 30 min. PCR was then initiated at 94 °C, 120 s for predenaturation and performed using 35 cycles each consisting of 94 °C for 30 s, 50 °C for 30 s, 72 °C for 90 s. Then 20 µL of PCR products were hybridised to a digoxigenin (DIG)-labelled telomeric repeat specific detection probe. And the PCR products were immobilised via the biotin-labelled primer to a streptavidin-coated microtiter plate subsequently. The immobilised DNA fragments were detected with a peroxidase-conjugated anti-DIG antibody and visualised following the addition of the stop regent. The microtitre plate was assessed on TECAN Infinite M200 microplate reader (Mannedorf, Switzerland) at a wavelength of 490 nm, and the final value were presented as mean ± SD[23].

[3] = tested on: human hepatoma cell SMMC-7721; assay: Cell proliferation (MTT) assay, SMMC-7721; format: cell-based; details: read-out: IC50 SMMC-7721
Procedure: as §1

[4] = tested on: human gastric cancer cells MGC-803; assay: Cell proliferation (MTT) assay, MGC-803; format: cell-based; details: read-out: IC50 MGC-803
Procedure: as §1

[5] = Homo sapiens, MDA-MB-231, 48 h, read-out: IC50 MDA-MB-231, antiproliferative, MTT, 48 h exposure
[6] = Homo sapiens, A-375, 48 h, read-out: IC50 A375, antiproliferative, MTT, 48 h exposure
[7] = IC50 inhibitory activity against telomerase
[8] = antiproliferative, MTT, 48 h exposure
[9] = antiproliferative, MTT, 48 h exposure, read-out: IC50 MDA-MB-231
[10] = antiproliferative, MTT, 48 h exposure, read-out: IC50 A375

T1 sequence (O14746 whole entry): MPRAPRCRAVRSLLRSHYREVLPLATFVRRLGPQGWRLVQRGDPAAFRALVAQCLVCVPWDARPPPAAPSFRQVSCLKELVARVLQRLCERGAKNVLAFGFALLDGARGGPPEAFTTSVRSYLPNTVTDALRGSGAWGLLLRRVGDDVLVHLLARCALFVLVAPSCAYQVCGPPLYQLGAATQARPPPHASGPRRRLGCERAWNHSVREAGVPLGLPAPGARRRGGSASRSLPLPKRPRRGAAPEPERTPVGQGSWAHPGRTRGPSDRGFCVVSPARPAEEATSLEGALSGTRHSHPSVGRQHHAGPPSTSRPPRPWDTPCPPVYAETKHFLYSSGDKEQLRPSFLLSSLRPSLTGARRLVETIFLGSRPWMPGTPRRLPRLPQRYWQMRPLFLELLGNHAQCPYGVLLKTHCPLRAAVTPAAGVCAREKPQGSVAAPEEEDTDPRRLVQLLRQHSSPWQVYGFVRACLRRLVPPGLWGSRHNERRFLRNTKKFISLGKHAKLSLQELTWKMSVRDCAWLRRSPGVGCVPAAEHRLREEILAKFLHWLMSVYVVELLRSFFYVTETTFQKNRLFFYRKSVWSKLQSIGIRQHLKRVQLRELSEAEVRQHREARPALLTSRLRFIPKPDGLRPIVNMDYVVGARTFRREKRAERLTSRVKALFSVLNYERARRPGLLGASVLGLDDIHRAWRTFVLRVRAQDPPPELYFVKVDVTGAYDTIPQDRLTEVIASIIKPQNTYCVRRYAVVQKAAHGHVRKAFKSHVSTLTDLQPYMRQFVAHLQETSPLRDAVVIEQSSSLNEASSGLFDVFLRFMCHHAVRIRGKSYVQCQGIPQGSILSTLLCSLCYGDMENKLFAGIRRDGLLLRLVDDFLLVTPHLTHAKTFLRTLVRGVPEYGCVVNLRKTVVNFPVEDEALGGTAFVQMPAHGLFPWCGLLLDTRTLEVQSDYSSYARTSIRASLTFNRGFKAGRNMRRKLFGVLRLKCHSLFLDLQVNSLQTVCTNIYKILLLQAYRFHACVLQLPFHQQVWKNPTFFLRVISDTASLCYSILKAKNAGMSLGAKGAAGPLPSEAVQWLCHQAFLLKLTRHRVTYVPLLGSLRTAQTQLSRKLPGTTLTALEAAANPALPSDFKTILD

Compound	IC50 [2, 5] [µM]	IC50 (human melanoma cell A375; [6]) [µM]	IC50 (telomerase; [7]) [µM]	IC50 ([3]; Homo sapiens, SMMC-7721, 48 h) [µM]	IC50 [2, 9] [µM]	IC50 (human melanoma cell A375; [10]) [µM]	also measured
O=S(=O)(F)/C=C/C=C/c1ccccc1 [Compound 48]	39.7 ± 1.39	27.4 ± 1.5	40.2 ± 1.3	51 ± 1.91	–	–	IC50 ([1]; Homo sapiens, SGC-7901, 48 h): 49.1 ± 1.39 µM
Cc1ccc(/C=C/C=C/S(=O)(=O)F)cc1 [Compound 49]	–	–	–	–	35.2 ± 1.4	32.8 ± 1.44	IC50 [1, 8]: 49.79 ± 0.47 µM; IC50 [3, 8]: 48.5 ± 1.65 µM
CC(C)(C)c1ccc(/C=C/C=C/S(=O)(=O)F)cc1 [Compound 50]	–	–	–	–	31.6 ± 1.2	20.7 ± 1.39	IC50 [1, 8]: 26.9 ± 0.56 µM; IC50 [3, 8]: 29.1 ± 1.27 µM
O=S(=O)(F)/C=C/C=C/c1ccc2ccccc2c1 [Compound 55]	14.3 ± 1.07	5.87 ± 0.2	47.2 ± 1.52	34.1 ± 1.45	–	–	–
COc1cc(/C=C/C=C/S(=O)(=O)F)cc(OC)c1 [Compound 56]	12.2 ± 0.92	6.92 ± 0.44	3.2 ± 0.55	19.3 ± 0.82	–	–	IC50 ([1]; Homo sapiens, SGC-7901, 48 h): 34.5 ± 1.04 µM
O=C1C=C(/C=C/S(=O)(=O)F)CCC1 [Compound 58]	–	–	–	–	–	–	IC50 (telomerase; read-out: IC50 inhibitory activity against telomerase): 39.9 ± 1.29 µM
O=S(=O)(F)/C=C/c1cc(F)nc(F)c1 [Compound 59]	–	58 ± 1.71	44.2 ± 2.26	–	–	–	–
Cc1ccc(S(=O)(=O)n2cc(/C=C/S(=O)(=O)F)cn2)cc1 [Compound 61]	26.9 ± 1.2	27.3 ± 1	–	28.2 ± 1.49	–	–	IC50 ([4]; Homo sapiens, MGC-803, 48 h): 27.1 ± 1.03 µM
O=C(O)c1ccc(/C=C/S(=O)(=O)F)cc1 [Compound 62]	86.2 ± 2.44	45.1 ± 1.4	39.9 ± 1.4	–	–	–	–
O=S(=O)(F)/C=C/c1ccc(I)cc1 [Compound 63]	–	–	45.3 ± 1.87	–	–	–	–
CS(=O)(=O)c1ccc(/C=C/S(=O)(=O)F)cc1 [Compound 66]	–	–	–	–	30.3 ± 1.22	8.56 ± 0.49	IC50 [3, 8]: 52 ± 1.7 µM; IC50 [4, 8]: 19.6 ± 1.17 µM
O=S(=O)(F)/C=C/c1cc(C(F)(F)F)cc(C(F)(F)F)c1 [Compound 68]	–	–	–	–	21.2 ± 0.8	19.7 ± 1	IC50 [4, 8]: 37.4 ± 1.35 µM
COc1ccc(Cl)cc1/C=C/S(=O)(=O)F [Compound 71]	8.09 ± 0.52	8.65 ± 0.33	6.08 ± 1.3	23.2 ± 0.78	–	–	IC50 ([4]; Homo sapiens, MGC-803, 48 h): 20.8 ± 0.79 µM
O=S(=O)(F)/C=C/c1cccc(I)c1 [Compound 72]	–	–	–	–	22.6 ± 1	13 ± 0.77	IC50 [3, 8]: 16.1 ± 0.91 µM; IC50 [4, 8]: 44.9 ± 1.13 µM
O=S(=O)(F)/C=C/c1ccccc1F [Compound 73]	–	–	–	–	25.6 ± 0.97	11.2 ± 0.81	IC50 [4, 8]: 57.7 ± 1.44 µM
CC(C)c1cccc(/C=C/S(=O)(=O)F)c1 [Compound 74]	–	–	–	–	34.7 ± 1.2	26.8 ± 1.22	IC50 [1, 8]: 31.8 ± 0.82 µM; IC50 [4, 8]: 35.3 ± 1.25 µM
O=S(=O)(F)/C=C/c1ccccc1Br [Compound 76]	–	–	–	–	36 ± 1.2	18 ± 1.09	IC50 [1, 8]: 50.2 ± 1.79 µM
CCOC(=O)c1cccc(/C=C/S(=O)(=O)F)c1 [Compound 77]	–	–	–	–	19.4 ± 0.79	13.7 ± 1.29	IC50 [3, 8]: 23.6 ± 1.45 µM; IC50 [4, 8]: 51.8 ± 0.87 µM
O=S(=O)(F)/C=C/c1cc(Cl)nc(Cl)c1 [Compound 80]	–	–	49.3 ± 2.55	–	–	–	IC50 ([1]; Homo sapiens, SGC-7901, 48 h): 26.8 ± 1.01 µM
CS(=O)(=O)c1cccc(/C=C/S(=O)(=O)F)c1 [Compound 81]	27.8 ± 1.32	7.89 ± 0.56	2.55 ± 0.4	34.9 ± 1.7	–	–	–
CC(C)S(=O)(=O)c1ccc(/C=C/S(=O)(=O)F)cc1 [Compound 82]	28.7 ± 1.21	24.2 ± 0.6	37.9 ± 2.19	8.95 ± 0.27	–	–	–
